Assays:
[1] = system: P. falciparum male gametocytes; test: P. falciparum Dual Gamete Formation Assay (PfDGFA), male readout (exflagellation); assay type: cell-based, Plasmodium falciparum NF54; settings: for Average inhibition male (%): average of replicates; for % inhibition male (individual replicates) R1: replicate R1; for % inhibition male (individual replicates) R3: replicate R3; for % inhibition male (individual replicates) R4: replicate R4; for Activity: hit = >50% inhibition in male or female readout in at least 3 replicates, 0 = no class assigned
How it was run: (§1)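 Two sex-specific readouts come from one well: male exflagellation centres recorded by brightfield video right after activation, and female gametes scored by Cy3-anti-Pfs25 fluorescence after 24 h at 28°C.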

[2] = system: P. falciparum female gametocytes; test: P. falciparum Dual Gamete Formation Assay (PfDGFA), female readout (Pfs25-positive female gametes); assay type: cell-based, Plasmodium falciparum NF54; settings: for Average inhibition female (%): average of replicates; for % inhibition female (individual replicates) R1: replicate R1; for % inhibition female (individual replicates) R3: replicate R3; for % inhibition female (individual replicates) R4: replicate R4
How it was run: as §1

[3] = 2µM, 24h preincubation with gametocytes prior to induction of gametogenesis
[4] = 2µM, 24h preincubation, number of replicates with >50% inhibition in the male readout
[5] = 2µM, 24h preincubation, number of replicates with >50% inhibition in the female readout
[6] = 2µM, 24h preincubation, hits selected on >50% inhibition in the male readout across replicates
[7] = PfDGFA at 2µM, 24h preincubation
[8] = 2µM, 24h preincubation, hits selected on >50% inhibition in the female readout across replicates
[9] = PfDGFA at 2µM, 24h preincubation with gametocytes

Compound | Average inhibition male (%) [1, 3] [%] | % inhibition male (individual replicates) R1 [1, 3] [%] | % inhibition male (individual replicates) R3 [1, 3] [%] | % inhibition male (individual replicates) R4 [1, 3] [%] | HitlevelM [1, 4] | Average inhibition female (%) [2, 3] [%] | % inhibition female (individual replicates) R1 [2, 3] [%] | % inhibition female (individual replicates) R3 [2, 3] [%] | % inhibition female (individual replicates) R4 [2, 3] [%] | HitlevelF [2, 5] | further results
Cl.N#Cc1c(F)cc(N2CCC(NCC[C@H](N)Cc3ccc(F)c(F)c3)CC2)cc1F [TCMDC-132121] | 31.7 | 33.4 | 31.1 | 56.8 | 1 | 20.0 | 13.8 | 22.9 | 12.3 | 0 | 
O=C(O)C(F)(F)F.O=S(=O)(NCCN1CCCC1)c1ccc(-c2cccc(CNC3Cc4ccccc4C3)c2)s1 [TCMDC-132217] | 13.9 | 10.5 | 7.6 | 38.2 | 0 | 35.5 | 25.9 | 15.7 | 46.4 | 1 | 
O=C(O)C(F)(F)F.O=S(=O)(NCCN1CCCC1)c1ccc(-c2cccc(CNC3Cc4ccccc4C3)c2)cc1F [TCMDC-132221] | 11.1 | 3.1 |  | 19.5 | 0 | 29.0 | 30.1 | 27.5 | 20.7 | 0 | 
COc1ccc(CNCc2ccc(F)cc2)cc1-c1cccc(S(=O)(=O)NCCN2CCCC2)c1.O=C(O)C(F)(F)F [TCMDC-132223] | -1.9 | -0.6 | 2.2 | -9.8 | 0 | 23.7 | 23.5 | 4.6 | 54.2 | 1 | 
CN1CCC(NCc2ccc(-c3ccc(S(=O)(=O)NCc4ccccc4)cc3)cc2)CC1.O=C(O)C(F)(F)F [TCMDC-132227] | 43.4 | 32.1 |  | 43.3 | 1 | 19.1 | 9.9 | 31.6 | 17.4 | 0 | 
O=C(O)C(F)(F)F.O=S(=O)(NCCN1CCCC1)c1ccc(-c2ccc(CNC3Cc4ccccc4C3)cc2)cc1 [TCMDC-132229] | 10.7 | 12.4 | 8.7 | 9.5 | 0 | 26.6 | 21.5 | 7.4 | 45.3 | 0 | 
CN1CCC(NCc2ccc(-c3ccc(S(=O)(=O)NCc4ccccc4)s3)cc2)CC1.O=C(O)C(F)(F)F [TCMDC-132231] | 34.4 | 32.6 |  | 32.4 |  | 9.7 | 17.2 | 1.4 | 10.3 |  | HitlevelM [1, 6]: 0; Activity [1, 7]: 0; HitlevelF [2, 8]: 0
O=C(O)C(F)(F)F.O=S(=O)(NCCN1CCCC1)c1ccc(-c2ccc(CNC3Cc4ccccc4C3)cc2)s1 [TCMDC-132234] | 17.3 | 15.3 | 1.0 | 34.9 | 0 | 29.4 | 25.4 | 5.2 | 45.9 | 0 | 
CN1CCC(NCc2ccc(-c3cccc(S(=O)(=O)NCc4ccccc4)c3)cc2)CC1.O=C(O)C(F)(F)F [TCMDC-132238] | 25.7 | 17.7 | -3.8 | 50.9 |  | 15.2 | 18.5 | -4.9 | 24.5 |  | HitlevelM [1, 6]: 1; Activity [1, 7]: 0; HitlevelF [2, 8]: 0
O=C(O)C(F)(F)F.O=S(=O)(NCCN1CCCC1)c1cccc(-c2ccc(CNC3Cc4ccccc4C3)cc2)c1 [TCMDC-132241] | -1.0 | 15.7 | -7.3 | -2.5 |  | 16.9 | 23.8 | 3.4 | 2.0 |  | HitlevelM [1, 6]: 0; Activity [1, 7]: 0; HitlevelF [2, 8]: 0
COc1ccc(CNC2CCN(C)CC2)cc1-c1ccc(S(=O)(=O)NCc2ccccc2)cc1.O=C(O)C(F)(F)F [TCMDC-132244] |  |  |  |  |  |  |  |  |  |  | Average inhibition male (%) [1, 9]: 63.1%; % inhibition male (individual replicates) R1 [1, 9]: 62.4%; % inhibition male (individual replicates) R3 [1, 9]: 51.6%; % inhibition male (individual replicates) R4 [1, 9]: 78.9%; HitlevelM ([1]; number of replicates with >50% inhibition in the male readout, 2µM): 4; Average inhibition female (%) [2, 9]: 25.2%; % inhibition female (individual replicates) R1 [2, 9]: 21.6%; % inhibition female (individual replicates) R3 [2, 9]: 8.8%; % inhibition female (individual replicates) R4 [2, 9]: 45.4%; HitlevelF ([2]; number of replicates with >50% inhibition in the female readout, 2µM): 0
COc1ccc(CNC2CCN(C)CC2)cc1-c1ccc(S(=O)(=O)NC2CCC2)cc1.O=C(O)C(F)(F)F [TCMDC-132245] | 51.4 | 59.0 | 27.2 | 60.2 | 3 | 10.6 | 7.8 | -17.0 | 30.9 | 0 | 
COc1ccc(CNC2Cc3ccccc3C2)cc1-c1ccc(OC)c(S(=O)(=O)NCCN2CCCC2)c1.O=C(O)C(F)(F)F [TCMDC-132251] | -9.5 | -12.6 | -24.0 | 8.2 | 0 | 36.3 | 26.7 | 26.1 | 31.1 | 1 | 
COc1ccc(CNC2CCN(C)CC2)cc1-c1ccc(S(=O)(=O)NC2CCC2)s1.O=C(O)C(F)(F)F [TCMDC-132254] | 56.3 | 57.2 |  | 49.8 |  | 16.7 | 16.7 | 22.1 | 14.8 |  | HitlevelM [1, 6]: 2; Activity [1, 7]: 0; HitlevelF [2, 8]: 0

— article PMC10584170, “Machine learning-based phenotypic imaging to characterise the targetable biology of Plasmodium falciparum male gametocytes for the development of transmission-blocking antimalarials” (PLOS Pathogens, 2023)
